{"source": "patent US4981848A", "about": "“Alpha-adrenergic receptor antagonists” (SmithKline Beecham Corporation, priority 1989, dated 1991)", "tested_on": "spontaneously hypertensive rats", "assay": "antihypertensive activity in the spontaneously hypertensive rat model", "type": "in vivo", "conditions": "oral administration at 20 mg/kg", "protocol": "The antihypertensive activity of certain compounds of the present invention was determined using the spontaneously hypertensive rat model. The details of this in vivo test are found in Roesler, J. M., et al., J. Pharmacol. Exp. Ther., 236:1-7 (1986)."}
{"substance": "N-[(7-Chloro-3,4,5,6-tetrahydro-4-methylthieno[4,3,2-ef][3]benzazepin-2-yl)methyl]2-methylpropanesulfonamide [Example 7]", "values": [{"measurement": "arterial blood pressure", "value": "dose related reduction in arterial blood pressure"}]}
